pIC50: −log10 of the molar value.
Columns and labels:
[1] = test system: metalloproteinase activity of C. atrox, C. adamanteus and C. horridus venom; assay: In vitro snake venom metalloproteinase assay, North American rattlesnake venoms; type: biochemical, Crotalus atrox, Crotalus adamanteus, Crotalus horridus; conditions: 25 μM drug, 1 μg venom, range across the three rattlesnake venoms
From the text: FIG. 6. […] Error bars represent standard deviation.
The remaining assay protocol with respects to fluorogenic substrate preparation, plate-read settings and data processing was the same as described above.
These species were selected for their clinical importance in the USA, namely: 1) Crotalus atrox (Western diamondback), which is found across the southwest USA and into Mexico and is thought to be the most common cause of snakebite envenoming in USA, 2) Crotalus horridus (Timber rattlesnake), which is found across Eastern and central USA, and is categorised as a Group I medically important snake by the World Health Organization. Furthermore, this species is not included in the immunising mixture of the current FDA-approved CroFab antivenom. 3) Crotalus adamanteus (Eastern diamondback), which is another Group I medically important snake, found in the South-East USA.

[2] = test system: procoagulant activities of viper venoms (E. ocellatus, E. carinatus, B. asper, D. russelii); assay: Plasma clotting assay, neutralization of procoagulant venom activity; type: biochemical; conditions: for pIC50: range across all venoms, 100 ng venom, bovine plasma, read-out: IC50, inhibition of procoagulant activity
From the text: FIG. 11. SVMP-inhibitors neutralize the in vitro procoagulant activities of several geographically distinct viper venoms. […] The data presented represents the maximum clotting velocity, calculated as the maximum of the first derivative of each clotting curve, from triplicate independent repeat experiments with SEMs, where each technical repeat represents the mean of n≥2 technical replicates. EOC, E. ocellatus; ECAR, E. carinatus; BAS, Bothrops asper, BAR, Bitis arietans; DRUS, Daboia russelii. (B) Neutralization of procoagulant venom activity by four SVMP-inhibitors across four drug concentrations (150 μM to 150 nM). The data is expressed as the maximum clotting velocity at each dose. The negative (PBS) and positive (venom-only) controls are presented as intervals (bottom dashed and top dashed lines, respectively), with the latter representing the mean maximum clotting velocity in these samples±SEM. The data represent triplicate independent repeats with SEMs, where each technical repeat represents the mean of n≥2 technical replicates. Note the different y-axis scales.
Since SVMPs are key toxins associated with causing coagulopathy, we next investigated whether the same peptidomimetic and metal chelating inhibitors could also neutralize the procoagulant bioactivities of viper venoms. To do so, we used a validated kinetic absorbance-based assay monitoring plasma clotting^35 in the presence or absence of venoms and inhibitors (FIG. 11).
(§1) We used a previously developed plasma clotting assay^35 to measure venom-induced coagulation. Briefly, 100 ng of each venom was incubated at 37° C. for 30 min in the presence or absence of inhibitors (150 μM to 150 nM final concentrations). The final reaction consisted of 10 μl venom±inhibitors in PBS, 20 μl 20 mM CaCl2), and 20 μl citrated bovine plasma (VWR). The samples were pipetted in triplicate into 384-well plates, and absorbance monitored at 595 nm for 2 h at 25° C. on an Omega FLUOstar instrument. We calculated the maximum clotting velocity of each of the curves as per clot waveform analysis^67, by calculating the maximum of the first derivative. The means of at least three independent experimental runs for each condition were plotted at each inhibitor concentration with SEMs.

[3] = test system: D. russelii venom coagulation-related activities; assay: Plasma clotting assay, whole D. russelii venom; type: biochemical, Daboia russelii; conditions: 150 μM to 150 nM
Procedure: FIG. 12. […] The data is plotted separately for ‘very fast coagulation’, ‘medium coagulation’ and ‘anticoagulation’, based on the slopes of the 0-5 min and 0-20 min readings, and the single endpoint reading at 180 min. The tested inhibitor concentrations are presented alongside the chromatograms. […] The data is presented as the maximal clotting velocity at each concentration, and represents means of triplicate independent repeats with SEMs, where each technical repeat represents the mean of n≥2 technical replicates. The venom-only control (top dashed lines) and the negative control (bottom dashed lines) are presented as intervals and represent the average±SEM observed for the venom-only and PBS controls across all datasets and replicates.
as §1, with “The final reaction consisted of 10 μl venom±inhibitors in PBS, 20 μl 20 mM CaCl2), and 20 μl citrated bovine plasma (VWR).” left out, “The means of at least three independent experimental runs for each condition were plotted at each inhibitor concentration with SEMs.” left out

[4] = Tolerability of oral DMPS; type: in vivo
Echis ocellatus venom = conditions: previous work, same preclinical model; cited from earlier work
S. miliarius venom = assay: Murine preincubation model of venom lethality, North American pit viper venom; type: in vivo, CD-1 mice; conditions: 2.5×LD50 S. miliarius venom preincubated with 60 μg of each drug, i.v., 6 h, n=5
Procedure: Thereafter, the same murine animal model was used to explore the efficacy of the same snake venom metalloproteinase and phospholipase A2 inhibiting drugs as solo and combination treatments against North American pit viper venoms. The intravenous median lethal dose (venom LD50) for C. atrox, C. scutulatus, S. miliariius and A. contortrix venoms was previously determined (3.79 μg, 0.17 μg, 4.87 μg and 4.99 μg per mouse, respectively). […] As described above, all experimental doses were prepared to a volume of 200 μl in PBS and incubated at 37° C. for 30 min prior to their intravenous injection via the tail vein. Animals were monitored for 6 h, and euthanized via rising concentrations of CO2 upon observation of previously defined humane end points that are predicators of lethality (e.g., seizure, pulmonary distress, paralysis, hemorrhage). Deaths, time of death, and survivors were recorded; where death/time of death represents the implementation of euthanasia based on defined humane end points.
These snake species were selected for their taxonomic diversity and clinical importance in the USA, namely: 1) Crotalus atrox (Western diamondback), which is found across the southwest USA and into Mexico and is thought to be the most common cause of snakebite envenoming in USA, 2) Crotalus scutulatus (Mojave rattlesnake), which is also found across the southwest USA and into Mexico, 3) Sistrurus miliarius (pygmy rattlesnake), which is found in the South-East USA, and 4) Agkistrodon contortrix (Eastern copperhead), which is found in central and eastern USA. […] The drug treatments consisted of: DMPS, marimastat, or varespladib as solo drug treatments, or a DMPS and varespladib combination, or a marimastat and varespladib combination.

[5] = Water solubility when preparing stocks; type: physicochemical

Row | Compound | inhibition of metalloproteinase activity [1] | neutralization of procoagulant activities ([2]; E. ocellatus, E. carinatus and B. asper venoms, highest dose 150 μM) | pIC50 [2] | effect on procoagulant activity of whole D. russelii venom [3] | oral dose that is well tolerated and safe [4] | time for which lethality was prevented (Echis ocellatus venom) [h] | protection against venom lethality (S. miliarius venom) | water solubility [5]
1 | O=S(=O)(O)CC(S)CS (stereo not drawn) [DMPS, 2,3-dimercapto-1-propanesulfonic acid] | 88.6-97.8% | effective at neutralizing the procoagulant activities | 4.59 to 6.10 | ineffective | up to 1,500 mg | ~8 | – | –
2 | CCc1c(C(=O)C(N)=O)c2c(OCC(=O)O)cccc2n1Cc1ccccc1 [varespladib] | – | – | – | – | – | – | survived for longer periods of time than the venom only controls | water insolubility
3 | CNC(=O)[C@@H](NC(=O)[C@H](CC(C)C)[C@H](O)C(=O)NO)C(C)(C)C [marimastat] | 90.9-99.1% | – | 5.72 to 6.82 | revealed clear venom anticoagulant effects | – | – | some protection | –
